Assay results from patent publication US11286268B1, “EIF4E-inhibiting compounds and methods” (EFFECTOR THERAPEUTICS, INC., priority 2019, dated 2022).
Like-named read-outs stand apart in the source and are kept apart here.

Target: recombinant eIF4E (Homo sapiens (Human), UniProt P06730)
Experiment: Fluorescence polarization competition assay for eIF4E binding potency
Procedure, shortened: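 Competition of test compound against 20 nM EDA-m^7GDP-ATTO-550 for 75 nM recombinant eIF4E, pre-incubated 5 min, in 20 mM Tris pH 7.5, 100 mM NaCl, 1 mM DTT, 0.02% Tween-20, 1% DMSO. Equilibrated 30 min at room temperature, dark; fluorescence polarization read. IC50 from 8-point, 3-fold dilution series.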

[1] = fluorescence polarization competition, 75 nM recombinant eIF4E, 20 nM EDA-m7GDP-ATTO-550, IC50 class, read-out: elF4E FP
[2] = inhibition of eIF4E/EDA-m7GDP-ATTO-550 binding by 50%, Table 4B calculated values, read-out: IC50
[3] = inhibition of eIF4E/EDA-m7GDP-ATTO-550 binding, calculated IC50 values, Table 4B, read-out: IC50

recombinant eIF4E, sequence (P06730 whole entry): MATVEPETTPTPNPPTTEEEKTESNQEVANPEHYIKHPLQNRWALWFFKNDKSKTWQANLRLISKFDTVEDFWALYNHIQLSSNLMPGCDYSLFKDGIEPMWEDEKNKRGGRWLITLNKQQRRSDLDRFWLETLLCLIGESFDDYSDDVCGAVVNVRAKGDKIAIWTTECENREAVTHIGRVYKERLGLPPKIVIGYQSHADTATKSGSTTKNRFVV

Work on `N#Cc1cc2c(=O)n(CCOc3ccc(Cl)cc3-c3cccc(C(=O)O)c3)cnc2cn1` [compound 66] yielded an IC50 [1] of 50 to 1000 nM and an IC50 [2] of 187 nM.

In the case of `Cc1nc2c(F)cc(Cl)c(C#N)c2c(=O)n1CCOc1ccc(Cl)cc1-c1ccnc2c(C(=O)O)csc12` [compound 407], the IC50 [1] is reported as < 50 nM and the IC50 [2] is reported as 33.1 nM.

In the case of `Cc1cc(-c2cc(Cl)ccc2OCCn2c(C)nc3cc(C(F)(F)F)c(-c4scnc4C)nc3c2=O)c2scc(C(=O)O)c2n1` [compound 939], the IC50 [1] is reported as < 50 nM and the IC50 [2] is reported as 12.1 nM.

In the case of `Cc1ccc2nc(C)n(CCOc3ccc(Cl)cc3-c3ccnc4c(C(=O)O)csc34)c(=O)c2c1C#N` [compound 572], the IC50 [1] is reported as < 50 nM and the IC50 [2] is reported as 30.6 nM.

`Cc1nc2cc(C(F)(F)F)cc(C#N)c2c(=O)n1CCOc1ccc(Cl)cc1-c1ccc(F)c2c(C(=O)O)csc12` [compound 2018] gave an IC50 [3] of 24.4 nM.

In the case of `Cc1nc(N2CCN(C)C3CC32)c(C#N)c2c(=O)n(CC#Cc3ccc(Cl)cc3-c3ccnc4c(C(=O)O)csc34)c(C)nc12` (centres unmarked) [compound 656], the IC50 [1] is reported as < 50 nM and the IC50 [2] is reported as 33.4 nM.

In the case of `Cc1nc2cnc(N(C)C3CCN(CC(=O)C(C)C)CC3)c(C#N)c2c(=O)n1CCOc1ccc(Cl)cc1-c1ccnc2c(C(=O)O)csc12` [compound 1127], the IC50 [1] is reported as < 50 nM and the IC50 [2] is reported as 12.9 nM.

In the case of `Cc1nc2ccccc2c(=O)n1CCOc1ccc(Cl)cc1-c1cccc(C(=O)O)c1` [compound 72], the IC50 [1] is reported as > 1000 nM and the IC50 [2] is reported as 3100 nM.

Compound `CSc1ncc(-c2cc(Cl)ccc2OCCn2cnc3cnc(C#N)cc3c2=O)nc1C(=O)O` [compound 98] has an IC50 [1] of 50 to 1000 nM and an IC50 [2] of 564 nM.

`Cc1nc(N2CCN(CC(F)F)CC2)c(C#N)c2c(=O)n(CCOc3ccc(Cl)cc3-c3ccnc4c(C(=O)O)csc34)c(C)nc12` [compound 1274] gave an IC50 [3] of 40.2 nM.

For `Cc1nc2cnc(N(C)C3CCN(CC(F)F)CC3)c(C#N)c2c(=O)n1CC#Cc1ccc(Cl)cc1-c1ccnc2c(C(=O)O)csc12` [compound 1112], the IC50 [1] was < 50 nM and the IC50 [2] was 19.9 nM.

`Cc1cc(-c2cc(Cl)ccc2OCCn2c(C)nc3cc(C(F)(F)F)c(-c4ncc(F)cn4)c(C#N)c3c2=O)c2scc(C(=O)O)c2n1` [compound 966] was tested, and the IC50 [1] was < 50 nM and the IC50 [2] was 3.58 nM.

Work on `Cc1nc2cnc(N(C)CCCN(C)CC(F)(F)F)c(C#N)c2c(=O)n1CC#Cc1ccc(Cl)cc1-c1ccnc2c(C(=O)O)csc12` [compound 1497] yielded an IC50 [3] of 12.9 nM.

In the case of `Cc1nc2cc(OC(F)(F)F)c(CN(C)C)c(C#N)c2c(=O)n1CCOc1ccc(Cl)cc1-c1ccnc2c(C(=O)O)csc12` [compound 532], the IC50 [1] is reported as < 50 nM and the IC50 [2] is reported as 45.1 nM.

In the case of `Cc1cc(-c2cc(Cl)ccc2OCCn2c(C)nc3cnc(-c4ccc(F)cc4)c(C#N)c3c2=O)c2scc(C(=O)O)c2n1` [compound 943], the IC50 [1] is reported as < 50 nM and the IC50 [2] is reported as 14.7 nM.

In the case of `Cc1cncc(-c2c(C(F)(F)F)cc3nc(C)n(CCOc4ccc(Cl)cc4-c4cc(C)nc5c(C(=O)O)csc45)c(=O)c3c2C#N)c1` [compound 775], the IC50 [1] is reported as < 50 nM and the IC50 [2] is reported as 48.3 nM.

Work on `N#Cc1cc(C(F)(F)F)cc2ncn(CCOc3ccc(Cl)cc3-c3cccc(C(=O)O)c3)c(=O)c12` [compound 1994] yielded an IC50 [3] of 41.8 nM.

In the case of `Cc1nc2ccc(CN(C)C)c(C#N)c2c(=O)n1CCOc1ccc(Cl)cc1-c1ccnc2c(C(=O)O)csc12` [compound 1936], the IC50 [3] is reported as 37.4 nM.

Compound `Cc1nc2cc(C(F)(F)F)c(N3CCN(CC(F)F)CC3)nc2c(=O)n1CC#Cc1ccc(Cl)cc1-c1ccnc2c(C(=O)O)csc12` [compound 1290] has an IC50 [3] of 149 nM.

`Cc1cc(-c2cc(Cl)ccc2OCCn2c(C)nc3cc(C(F)(F)F)c(N4CCN(C)CC4)c(C#N)c3c2=O)c2sc(C)c(C(=O)O)c2n1` [compound 1416] was tested, and the IC50 [3] was 12.7 nM.

`Cc1nc2cc(C(F)(F)F)c(C3CCNCC3)cc2c(=O)n1CCOc1ccc(Cl)cc1-c1ccnc2c(C(=O)O)csc12` [compound 880] showed an IC50 [1] of 50 to 1000 nM and an IC50 [2] of 67.9 nM.

For `Cc1nc2cc(C(F)F)cc(C#N)c2c(=O)n1CCOc1ccc(Cl)cc1-c1ccnc2c(C(=O)O)csc12` [compound 1939], the IC50 [3] was 24.5 nM.

Compound `Cc1nc2cnc(N3CCC(N(C)C4CC4)CC3)c(C#N)c2c(=O)n1CC#Cc1ccc(Cl)cc1-c1ccnc2c(C(=O)O)csc12` [compound 1527] has an IC50 [3] of 15.6 nM.

With `Cc1cc(-c2cc(Cl)ccc2OCCn2c(C)nc3cnc(OC4CNC4)c(C#N)c3c2=O)c2sc(C)c(C(=O)O)c2n1` [compound 869] the IC50 [1] was < 50 nM and the IC50 [2] was 25.4 nM.

For `Cc1cc(-c2cc(Cl)ccc2OCCn2c(C)nc3c(C)nc(-c4ccccc4C)c(C#N)c3c2=O)c2scc(C(=O)O)c2n1` [compound 479], the IC50 [1] was < 50 nM.

With `Cc1nc2cc(C(F)(F)F)cc(C#N)c2c(=O)n1CCOc1ccc(Cl)cc1-c1snc2c(C(=O)O)csc12` [compound 265] the IC50 [1] was 50 to 1000 nM and the IC50 [2] was 77.1 nM.

`Cc1cc(-c2cc(Cl)ccc2OCCn2c(C)nc3cc(C(F)(F)F)c(-c4nc(C(F)F)ccc4F)c(C#N)c3c2=O)c2scc(C(=O)O)c2n1` [compound 995] was tested, and the IC50 [1] was < 50 nM and the IC50 [2] was 15.7 nM.

For `Cc1ccc(C(=O)O)c2nccc(-c3cc(Cl)ccc3OCCn3cnc4cncc(C#N)c4c3=O)c12` [compound 45], the IC50 [1] was > 1000 nM and the IC50 [2] was 2890 nM.

`Cc1nc2cc(C(F)(F)F)cc(C#N)c2c(=O)n1CCOc1cnc(C#N)cc1-c1ccnc2c(C(=O)O)csc12` [compound 291] showed an IC50 [1] of 50 to 1000 nM and an IC50 [2] of 99.5 nM.

Work on `Cc1nc2cnc(N(C)C3CCN(C(C)(C)CF)CC3)c(C#N)c2c(=O)n1CCOc1ccc(Cl)cc1-c1ccnc2c(C(=O)O)csc12` [compound 1429] yielded an IC50 [3] of 17.8 nM.

With `Cc1nc2cnc(N(C)C3CCN(C4CC(F)(F)C4)CC3)c(C#N)c2c(=O)n1CC#Cc1ccc(Cl)cc1-c1ccnc2c(C(=O)NS(=O)(=O)c3ccccn3)csc12` [compound 1830] the IC50 [3] was 8.06 nM.

For `Cc1cc(-c2c(C(F)(F)F)cc3nc(C)n(CCOc4ccc(Cl)cc4-c4cc(C)nc5c(C(=O)O)csc45)c(=O)c3c2C#N)nc(C)n1` [compound 963], the IC50 [1] was < 50 nM and the IC50 [2] was 7.84 nM.

`Cc1cc(-c2cc(Cl)ccc2OCCn2c(C)nc3cc(C(F)(F)F)c(N4CCC(C)(C)CC4)nc3c2=O)c2scc(C(=O)O)c2n1` [compound 801] was tested, and the IC50 [1] was < 50 nM and the IC50 [2] was 17 nM.

`Cc1nc2cc(C(F)(F)F)c(CN(C)C)c(F)c2c(=O)n1CCOc1ccc(Cl)cc1-c1ccnc2c(C(=O)O)csc12` [compound 621] showed an IC50 [1] of 50 to 1000 nM and an IC50 [2] of 60 nM.

Work on `COCC1(N2CCN(c3ncc4nc(C)n(CC#Cc5ccc(Cl)cc5-c5ccnc6c(C(=O)O)csc56)c(=O)c4c3C#N)CC2)CC1` [compound 1465] yielded an IC50 [3] of 23.6 nM.

`Cc1nc2cnc(N(C)[C@@H]3CC[C@@H](N(C)CC(F)F)C3)c(C#N)c2c(=O)n1CC#Cc1ccc(Cl)cc1-c1ccnc2c(C(=O)O)csc12` [compound 1581] gave an IC50 [3] of 14.3 nM.

In the case of `Cc1cc(-c2cc(Cl)ccc2OCCn2c(C)nc3cc(F)c(C4=CCCC4)c(C#N)c3c2=O)c2scc(C(=O)O)c2n1` [compound 805], the IC50 [1] is reported as < 50 nM and the IC50 [2] is reported as 13.6 nM.

Work on `Cc1nc2cnc(N3CCN(CC(F)(F)Cl)CC3)c(C#N)c2c(=O)n1CCOc1ccc(Cl)cc1-c1ccnc2c(C(=O)O)csc12` [compound 1474] yielded an IC50 [3] of 13.8 nM.

In the case of `CCC#Cc1c(C(=O)O)cccc1-c1cc(Cl)ccc1OCCn1c(C(F)F)nc2cccc(C#N)c2c1=O` [compound 1987], the IC50 [3] is reported as 1290 nM.

In the case of `N#Cc1cc2c(=O)n(CCOc3ccc(Cl)cc3-c3cnc(C(=O)O)s3)cnc2cn1` [compound 54], the IC50 [1] is reported as > 1000 nM and the IC50 [2] is reported as 2280 nM.

In the case of `COc1ccc(S(=O)(=O)NC(=O)c2csc3c(-c4cc(Cl)ccc4C#CCn4c(C)nc5cnc(N(C)C6CCN(CC(C)(F)F)CC6)c(C#N)c5c4=O)ccnc23)cn1` [compound 1681], the IC50 [3] is reported as 8.27 nM.

In the case of `Cc1cc(-c2cc(Cl)ccc2OCCn2c(C)nc3cc(C(F)(F)F)c(OCc4ccccn4)c(C#N)c3c2=O)c2scc(C(=O)O)c2n1` [compound 1033], the IC50 [1] is reported as < 50 nM and the IC50 [2] is reported as 20 nM.

Compound `Cc1nc2cnc(SC3CCN(CC(F)(F)F)CC3)c(C#N)c2c(=O)n1CCOc1ccc(Cl)cc1-c1ccnc2c(C(=O)O)csc12` [compound 1349] has an IC50 [3] of 36.5 nM.

For `Cc1cc(-c2cc(Cl)ccc2OCCn2c(C)nc3cc(C(F)(F)F)c(-c4cncc(C(F)(F)F)n4)c(C#N)c3c2=O)c2scc(C(=O)O)c2n1` [compound 1026], the IC50 [1] was < 50 nM and the IC50 [2] was 15.5 nM.

Compound `O=C(O)c1cccc(-c2cc(Cl)ccc2OCCc2cc(C(F)(F)F)nc3nc(Nc4ccccc4)[nH]c(=O)c23)c1` [compound 178] has an IC50 [1] of 50 to 1000 nM and an IC50 [2] of 140 nM.

For `Cc1nc2cnc(N(C)C3CCN(C(C)(C)C(C)(F)F)CC3)c(C#N)c2c(=O)n1CC#Cc1ccc(Cl)cc1-c1ccnc2c(C(=O)O)csc12` [compound 1506], the IC50 [3] was 27.4 nM.

`Cc1nc2c(C(F)(F)F)ccc(C#N)c2c(=O)n1CCOc1ccc(Cl)cc1-c1cccc(C(=O)O)c1` [compound 142] showed an IC50 [1] of 50 to 1000 nM and an IC50 [2] of 152 nM.

With `Cc1cc(-c2cc(Cl)ccc2OCCn2c(C)nc3c(C)nc(-c4ccc(Cl)cc4)c(C#N)c3c2=O)c2scc(C(=O)O)c2n1` [compound 480] the IC50 [1] was < 50 nM and the IC50 [2] was 7.39 nM.

In the case of `C#Cc1c(C(=O)O)cccc1-c1cc(Cl)ccc1OCCn1c(CF)nc2cc(C#N)cc(C#N)c2c1=O` [compound 232], the IC50 [1] is reported as < 50 nM and the IC50 [2] is reported as 16.3 nM.

`Cc1nc2cnc(N(C)C3CCN([C@H]4C[C@@H](OC(F)(F)F)C4)CC3)c(C#N)c2c(=O)n1CC#Cc1ccc(Cl)cc1-c1ccnc2c(C(=O)NS(=O)(=O)c3ccccn3)csc12` [compound 1611] gave an IC50 [3] of 3.85 nM.

In the case of `Cc1cc(-c2cc(Cl)ccc2OCCn2c(C)nc3cc4c(c(C#N)c3c2=O)CC(N(C)C)C4)c2scc(C(=O)O)c2n1` (centres unmarked) [compound 611], the IC50 [1] is reported as < 50 nM and the IC50 [2] is reported as 7.76 nM.

In the case of `CC(=O)c1csc2c(-c3cc(Cl)ccc3C#CCn3c(C)nc4cc(C(F)(F)F)c(N5CC6(C5)CN(C5CC5)C6)c(C#N)c4c3=O)ccnc12` [compound 1178], the IC50 [1] is reported as < 50 nM and the IC50 [2] is reported as 22.9 nM.

In the case of `Cc1cc(-c2cc(Cl)ccc2OCCn2c(C)nc3ccc(N4CCN(C)CC4)nc3c2=O)c2scc(C(=O)O)c2n1` [compound 678], the IC50 [1] is reported as 50 to 1000 nM and the IC50 [2] is reported as 53.8 nM.
